Source: patent US5578575A, “Partially modified and retro-inverted tetrapeptides analogues of C-reactive protein fragments” (Italfarmaco S.P.A., priority 1992, dated 1996)

What was measured:
murine splenocytes = assay: Stimulation of in vitro IFN-.tau. production by murine splenocytes (ELISA); format: cell-based, BALB/C mice; conditions: for IFN-.tau. production, Stimulation index / IFN-.tau. production, U/ml: 24 h; for IFN-.tau. production, Stimulation index: with respect to control; for IFN-.tau. production, U/ml: control 31 (Ex. 1, Ex. 2), 41 (Ex. 3)
Procedure: Stimulation of in vitro IFN-.tau.production by murine splenocytes The splenic cells were obtained from spleen of BALB/C mice as single cells suspension. The splenocytes thus obtained were resuspended in RPMI 1640 culture medium (Flow Lab., Hertz, UK) containing 5% of fetal calf serum (FCS) (HyClone, ST, Utah, USA) at a final concentrazione of 10^7 cells/ml, and incubated in 96-well plates for 24 hours at 37° C. in the presence of the tested compounds at the indicated concentration. At the end of the incubation the supernatant was collected, filtered by […] filter and freezed to -80° C. until the time of the test carried out by ELISA commercial kit (Genzyme, Boston, Mass., USA).

[1] = system: murine peritoneal macrophages; assay: Stimulation of IL-1 production by murine peritoneal macrophages (ELISA); format: cell-based, BALB/C mice; conditions: 96 h; for IL-1 production, Stimulation index: with respect to control; for IL-1 production, U/ml: control 15
From the text: Stimulation of IL-1 production by murine peritoneal macrophages Murine peritoneal macrophages were obtained by inoculation of a solution of hydrolized starch (BDH Chemicals, Poole, Dorset, UK) into the peritoneal cavity of BALB/C mice, three days before sacrificing the animals. The peritoneal cells were then collected by washing the peritoneal cavity with a solution of RPMI 1640 containing 10% of FCS, and resuspended in the same solution at a concetration of 10^6 cells/ml in 96-well plates. The incubation was performed for 96 hours at 37° C. in the presence of the compounds in question. At the end of the treatment the supernatants were collected and used for dosing cytokine by means of a suitable ELISA commerical kit (Genzyme, Boston, Mass., USA).

murine peritoneal cells = assay: Stimulation of the nitric oxide by murine peritoneal cells (chemiluminescence); format: cell-based, BALB/C mice; conditions: 96 h, with LPS 30 μg/ml; for nitric oxide, Stimulation index: with respect to control; for nitric oxide content: control 20
Procedure: Stimulation of the nitric oxide by murine peritoneal cells The peritoneal cells were obtained as described in the previous test, and incubated for 96 hours at 37° C. in the presence of the compounds in question and of lipopolysaccharide at a concentration of 30 μg/ml. At the end of the treatment the supernatants were collected and the nitric oxide content was determined by the chemiluminescence test described by Palmer R. M. J. et al, Nature, 327, 524, 1987.

Leishmania major = assay: Effect on the leishmanicidal activity of murine peritoneal macrophage (3H-thymidine incorporation by living parasites); format: cell-based; conditions: for cpm (counts per minute), 3H-thymidine incorporation by living parasites: control 18,273
Procedure: Effect on the leishmanicidal activity of murine peritoneal macrophage The peritoneal cells collected as described above were seeded in 96-well flat bottom plates (Nunc, Roskiled, DK) at a concentration of 10^5 […]; and incubated per 24 hours at 37° C. At the end of the treatment, the cells not adherent to the well were separated and discharged, whereas the adherent cells were washed three time with culture medium and incubated for 24 hours with the compounds in question, then the cells were infected through a 24 hours incubation with promastigotes of Leishmania major (L. major, PVL49 strain supplied by Dr. Neal R. A., London School of Hygiene and Tropical Medicine, London, UK). At the end of the infection treatment each well was added with 100 μl of a 0.01% solution od sodium dodecylsulphate in RPMI 1640, and the plates were incubated for 30 minutes at 37° C. The Schneider's culture medium (Schneider Drosophila medium, Gibco Lab., Grand Island, N.Y., USA) with 30% of FCS was added. Each well was added with 1 μCi of ^3 H-thymidine, and a 72 hours incubation was carried out at 37° C. The incorporation of radioactivity by the living parasites inside the peritoneal cells, which is correlated to the infection degree and consequently to the leishmanicidal activity of the cells, was measured by collecting the cells by means of a cell-harvester and measuring the radioactivity with liquid scintillation β-counter.

BALB/C mice = assay: In vivo protection against septic shock (LPS-inoculated mice, survival); conditions: LPS 50 mg/kg i.p., compound at time 0 or 30 minutes after LPS, checked for 8 days
Procedure: Evaluation of the in vivo protection against septic shock
BALB/C mice (6 mice/group) weighting between 20 and 25 g, were intraperitoneally inoculated with 50 mg/kg of LPS (lipopolysaccharide-Sigma). The groups, except for the control, were inoculated with increasing doses of one of the compounds of the invention dissolved in physiologic solution having a final volume of 0.5 ml, at time 0 (i.e. together with LPS) or 30 minutes after the LPS inoculation. The mice were checked for 8 days to determined the survival percentage. Compound of Example 1 yields a survival percentage of about 65% at doses of 6.2 ug/mouse and 0.62 ug/mouse, and its isomer B yields a survival percentage of about 80% at a dose of 6.25 ug/mouse and of 75% at a dose of 62.5 ug/mouse.

N=C(N)NCCC[C@H](NC(=O)[C@@H]1CCCN1C(=O)C(CCCCN)C(=O)NCN)C(=O)O (single isomer, unassigned) [Example 1]
IFN-.tau. production, Stimulation index (murine splenocytes; 0.1 μg/ml): 1.1
IFN-.tau. production, U/ml (murine splenocytes; 0.1 μg/ml): 33 U/ml
IFN-.tau. production, change in words (murine splenocytes; 1.0 μg/ml): doubled
IFN-.tau. production, Stimulation index (murine splenocytes; 1.0 μg/ml): 1.9
IFN-.tau. production, U/ml (murine splenocytes; 1.0 μg/ml): 60 U/ml
IFN-.tau. production, Stimulation index (murine splenocytes; 10.0 μg/ml): 1.6
IFN-.tau. production, U/ml (murine splenocytes; 10.0 μg/ml): 49 U/ml
IL-1 production, Stimulation index ([1]; 0.01 μg/ml): 0.4
IL-1 production, U/ml ([1]; 0.01 μg/ml): 6 U/ml
IL-1 production, Stimulation index ([1]; 0.1 μg/ml): 0.1
IL-1 production, U/ml ([1]; 0.1 μg/ml): 2 U/ml
IL-1 production, Stimulation index ([1]; 1.0 μg/ml): 0.1
IL-1 production, U/ml ([1]; 1.0 μg/ml): 2 U/ml
IL-1 production, Stimulation index ([1]; 10.0 μg/ml): 0,1
IL-1 production, U/ml ([1]; 10.0 μg/ml): 2 U/ml
nitric oxide, Stimulation index (murine peritoneal cells; 0.01 μg/ml): 2.2
nitric oxide content (murine peritoneal cells; 0.01 μg/ml): 43 nmol/mL
nitric oxide, Stimulation index (murine peritoneal cells; 0.1 μg/ml): 3.0
nitric oxide content (murine peritoneal cells; 0.1 μg/ml): 59 nmol/mL
nitric oxide, Stimulation index (murine peritoneal cells; 1.0 μg/ml): 3.9
nitric oxide content (murine peritoneal cells; 1.0 μg/ml): 77 nmol/mL
nitric oxide, Stimulation index (murine peritoneal cells; 10.0 μg/ml): 2.9
nitric oxide content (murine peritoneal cells; 10.0 μg/ml): 57 nmol/mL
% reduction of infection (Leishmania major; 0.1 μg/ml (minimum dose used)): over 70%
% reduction of infection (Leishmania major; 0.1 μg/ml (minimum dose used), listed as Es. 1): 72%
cpm (counts per minute), 3H-thymidine incorporation by living parasites (Leishmania major; 0.1 μg/ml): 5,096 cpm
% reduction of infection (Leishmania major; 1.0 μg/ml): 79%
cpm (counts per minute), 3H-thymidine incorporation by living parasites (Leishmania major; 1.0 μg/ml): 3,783 cpm
% reduction of infection (Leishmania major; 10.0 μg/ml): 77%
cpm (counts per minute), 3H-thymidine incorporation by living parasites (Leishmania major; 10.0 μg/ml): 4,292 cpm
survival percentage (BALB/C mice; 0.62 ug/mouse): about 65%
survival percentage (BALB/C mice; 6.2 ug/mouse): about 65%

N=C(N)NCCC[C@H](NC(=O)[C@@H]1CCCN1C(=O)C(CCCCN)C(=O)NCN)C(=O)O (single isomer, unassigned) [ITF 1358]
survival percentage (BALB/C mice; 6.25 ug/mouse): about 80%
survival percentage (BALB/C mice; 62.5 ug/mouse): 75%
